Activity and Apoptosis data for twelve molecules are collected here from ChEMBL document CHEMBL1140289, “Studies on the apoptotic activity of natural and synthetic retinoids: discovery of a new class of synthetic terphenyls that potently support cell growth and inhibit apoptosis in neuronal and HL-60 cells” (2005).

Molecules are shown by their SMILES.

Experiment [1] has as its system HL-60. Put plainly: Effect (1 uM) on HL-60 cell growth cultured for 72 hours in nonsupplemented serum-free medium. Type of experiment: functional, Homo sapiens.
For experiment [2], the system named is HL-60. The experiment is described as follows: Effect (1 uM) on HL-60 cell apoptosis cultured for 72 hours in nonsupplemented serum-free medium. The experiment is classed as functional, Homo sapiens.

On to `CC1(C)CCC(C)(C)c2cc(/C=C/c3ccc(C(=O)O)cc3)ccc21`, for which the Activity with HL-60 [1] was 155 no. of living cells (10E3) /mL. Moreover, in the experiment with HL-60 [2], the Apoptosis was 36%.
Consider `COc1cc(-c2ccccc2-c2ccc(C(=O)O)cc2)cc(OC)c1OC`, for which the Activity in the experiment on HL-60 [1] is 220 no. of living cells (10E3) /mL. The Apoptosis in the experiment with HL-60 [2] is on record as 22%.
In the case of `COc1cc(-c2ccc(-c3ccc(C(=O)O)cc3)cc2)cc(OC)c1OC`, the Activity in the experiment on HL-60 [1] is on record as 300 no. of living cells (10E3) /mL. The same molecule showed an Apoptosis with HL-60 [2] of 18%.
For `CC(=O)OC[C@H](OC(C)=O)[C@@](C)(O)/C=C/C=C(C)/C=C/C1=C(C)CCCC1(C)C`, in that order: 207 no. of living cells (10E3) /mL and 30%.
Taken in the same sequence, the figures for `CC(=O)OC[C@H](OC(C)=O)/C(C)=C/C=C/C(C)=C/C=C1/C(C)=CCCC1(C)C` were 129 no. of living cells (10E3) /mL and 40%.
For the molecule `CC1=C(/C=C/C(C)=C/C=C/[C@](C)(O)[C@@H](O)CO)C(C)(C)CCC1`, the Activity in the experiment on HL-60 [1] is listed as 149 no. of living cells (10E3) /mL. In the experiment with HL-60 [2], this molecule yielded an Apoptosis of 37%.
Take `COc1cc(/C=C/c2ccc(C(=O)O)cc2)cc(OC)c1OC`: the Activity in the experiment on HL-60 [1] is listed as 166 no. of living cells (10E3) /mL. This molecule also registered an Apoptosis in the experiment with HL-60 [2] of 36%.
Take `CC(=O)CC[C@H](O)[C@@](C)(O)/C=C/C=C(C)/C=C/C1=C(C)CCCC1(C)C`: in the experiment with HL-60 [1], the Activity is on record as 129 no. of living cells (10E3) /mL. Also, the Apoptosis in the experiment with HL-60 [2] was found to be 41%.
Turning to `CC1=CCCC(C)(C)\C1=C/C=C(C)/C=C/C=C(\C)[C@@H](O)CO`, the Activity in the experiment on HL-60 [1] was 181 no. of living cells (10E3) /mL. The molecule further came in with an Apoptosis with HL-60 [2] of 34%.
Taken in the same sequence, the figures for `COc1cc(/C=C\c2ccc(C(=O)O)cc2)cc(OC)c1OC` were 100 no. of living cells (10E3) /mL and 42%.
As for `CC1(C)CCC(C)(C)c2cc(/C=C\c3ccc(C(=O)O)cc3)ccc21`, the Activity in the experiment on HL-60 [1] was 100 no. of living cells (10E3) /mL. For the same molecule, the Apoptosis in the experiment with HL-60 [2] was 43%.
Regarding `COc1cc(-c2cccc(-c3ccc(C(=O)O)cc3)c2)cc(OC)c1OC`, the Activity in the experiment with HL-60 [1] was 350 no. of living cells (10E3) /mL. Further, the Apoptosis with HL-60 [2] was 17%.
